pIC50: −log10 of the molar value.

What is called pIC50 is the IC50 on a negative log10 scale, so that one unit is a factor of ten.

The experiment concerns the target His6-TEV-PDGFRβ (557-1016) (Homo sapiens (Human), UniProt P09619). The experiment can be described thus: PDGFRβ HTRF Assay. To be noted: read-out: PDGFR HTRF IC50. The experiment is classed as biochemical. Summed up:
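HTRF KinEASE-TK readout (665/620 nm ratio) of TK-biotin substrate phosphorylation by His-tagged PDGFRβ kinase domain. Enzyme and inhibitor preincubated 30 min, then ATP/substrate added for 3 h at room temperature before 60 min EDTA quench/detection.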
A general note: TR-FRET usually uses a lanthanide donor and a delayed reading to cut background.

His6-TEV-PDGFRβ (557-1016), sequence (P09619 557-1016): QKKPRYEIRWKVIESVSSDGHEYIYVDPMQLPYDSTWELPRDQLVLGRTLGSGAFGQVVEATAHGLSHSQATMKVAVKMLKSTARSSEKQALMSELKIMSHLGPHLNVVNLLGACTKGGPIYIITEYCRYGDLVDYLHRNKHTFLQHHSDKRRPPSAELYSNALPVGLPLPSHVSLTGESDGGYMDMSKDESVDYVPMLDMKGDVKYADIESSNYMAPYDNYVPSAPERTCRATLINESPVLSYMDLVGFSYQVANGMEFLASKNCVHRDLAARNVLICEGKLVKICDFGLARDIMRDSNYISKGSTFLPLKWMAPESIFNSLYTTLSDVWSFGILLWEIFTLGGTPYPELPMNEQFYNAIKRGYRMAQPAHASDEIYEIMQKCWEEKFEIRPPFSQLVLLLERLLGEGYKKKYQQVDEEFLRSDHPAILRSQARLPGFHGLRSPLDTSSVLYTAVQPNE

Take `Cc1ncc(NC(=O)CN2CCOCC2(C)C)cc1NC(=O)c1cnn2cc(-c3cnn(C)c3)sc12` [Example 68, N-(5-(2-(3,3-dimethylmorpholino)acetamido)-2-methylpyridin-3-yl)-2-(1-methyl-1H-pyrazol-4-yl)pyrazolo[5,1-b]thiazole-7-carboxamide]: the pIC50 is 9.10.

`CC[C@@H]1COCCN1CC(=O)Nc1cnc(C)c(NC(=O)c2cnn3cc(-c4cnn(C)c4)sc23)c1` [Example 69, (R)—N-(5-(2-(3-ethylmorpholino)acetamido)-2-methylpyridin-3-yl)-2-(1-methyl-1H-pyrazol-4-yl)pyrazolo[5,1-b]thiazole-7-carboxamide]: the pIC50 was 9.30.

Turning to `CC[C@H]1COCCN1CC(=O)Nc1cnc(C)c(NC(=O)c2cnn3cc(-c4cnn(C)c4)sc23)c1` [Example 70, (S)—N-(5-(2-(3-ethylmorpholino)acetamido)-2-methylpyridin-3-yl)-2-(1-methyl-1H-pyrazol-4-yl)pyrazolo[5,1-b]thiazole-7-carboxamide], the pIC50 was 9.70.

As to `Cc1ncc(NC(=O)CN2[C@H](C)COC[C@@H]2C)cc1NC(=O)c1cnn2cc(-c3cnn(C)c3)sc12` [Example 71, N-(5-(2-((3S,5R)-3,5-dimethylmorpholino)acetamido)-2-methylpyridin-3-yl)-2-(1-methyl-1H-pyrazol-4-yl)pyrazolo[5,1-b]thiazole-7-carboxamide], the pIC50 is 8.54.

As to `Cc1ncc(NC(=O)CN2CCN(C)C(=O)C2)cc1NC(=O)c1cnn2cc(-c3cnn(C)c3)sc12` [Example 72, 2-(1-methyl-1H-pyrazol-4-yl)-N-(2-methyl-5-(2-(4-methyl-3-oxopiperazin-1-yl)acetamido)pyridin-3-yl)pyrazolo[5,1-b]thiazole-7-carboxamide], the pIC50 is 8.24.

With `Cc1ncc(NC(=O)CN2CCC(F)(F)C2)cc1NC(=O)c1cnn2cc(-c3cnn(C)c3)sc12` [Example 73, N-(5-(2-(3,3-difluoropyrrolidin-1-yl)acetamido)-2-methylpyridin-3-yl)-2-(1-methyl-1H-pyrazol-4-yl)pyrazolo[5,1-b]thiazole-7-carboxamide], the pIC50 is 9.52.

`Cc1ncc(NC(=O)CN2CCOC[C@@H]2C)cc1NC(=O)c1cnn2cc(-c3cnn(C)c3)sc12` [Example 74, (S)-2-(1-methyl-1H-pyrazol-4-yl)-N-(2-methyl-5-(2-(3-methylmorpholino)acetamido)pyridin-3-yl)pyrazolo[5,1-b]thiazole-7-carboxamide]: the negative logarithm of the IC50 (pIC50) was 9.00.

As to `Cc1ncc(NC(=O)CN2CCn3ccnc3C2)cc1NC(=O)c1cnn2cc(-c3cnn(C)c3)sc12` [Example 75, N-(5-(2-(5,6-dihydroimidazo[1,2-a]pyrazin-7 (8H)-yl)acetamido)-2-methylpyridin-3-yl)-2-(1-methyl-1H-pyrazol-4-yl)pyrazolo[5,1-b]thiazole-7-carboxamide], the pIC50 is 8.39.

With `Cc1ncc(NC(=O)CN2Cc3ncsc3C2)cc1NC(=O)c1cnn2cc(-c3cnn(C)c3)sc12` [Example 76, N-(5-(2-(4H-pyrrolo[3,4-d]thiazol-5 (6H)-yl)acetamido)-2-methylpyridin-3-yl)-2-(1-methyl-1H-pyrazol-4-yl)pyrazolo[5,1-b]thiazole-7-carboxamide], the pIC50 was 9.05.

As for `Cc1ncc(NC(=O)CN2Cc3ccncc3C2)cc1NC(=O)c1cnn2cc(-c3cnn(C)c3)sc12` [Example 77, N-(5-(2-(1H-pyrrolo[3,4-c]pyridin-2 (3H)-yl)acetamido)-2-methylpyridin-3-yl)-2-(1-methyl-1H-pyrazol-4-yl)pyrazolo[5,1-b]thiazole-7-carboxamide], the pIC50 was 8.74.

For the compound `Cc1ncc(NC(=O)CN2CCOCC23CCC3)cc1NC(=O)c1cnn2cc(-c3cnn(C)c3)sc12` [Example 78, N-(5-(2-(8-oxa-5-azaspiro[3.5]nonan-5-yl)acetamido)-2-methylpyridin-3-yl)-2-(1-methyl-1H-pyrazol-4-yl)pyrazolo[5,1-b]thiazole-7-carboxamide], the pIC50 was 9.05.

Turning to `COCC1CCCN1CC(=O)Nc1cnc(C)c(NC(=O)c2cnn3cc(-c4cnn(C)c4)sc23)c1` (stereo not drawn) [Example 79, N-(5-(2-(2-(methoxymethyl)pyrrolidin-1-yl)acetamido)-2-methylpyridin-3-yl)-2-(1-methyl-1H-pyrazol-4-yl)pyrazolo[5,1-b]thiazole-7-carboxamide], the pIC50 was 9.10.

As for `Cc1ncc(NC(=O)CN2CCCOCC2)cc1NC(=O)c1cnn2cc(-c3cnn(C)c3)sc12` [Example 80, N-(5-(2-(1,4-oxazepan-4-yl)acetamido)-2-methylpyridin-3-yl)-2-(1-methyl-1H-pyrazol-4-yl)pyrazolo[5,1-b]thiazole-7-carboxamide], the pIC50 is 8.85.

As for `Cc1ncc(NC(=O)CN2CCC3(CCO3)CC2)cc1NC(=O)c1cnn2cc(-c3cnn(C)c3)sc12` [Example 81, N-(5-(2-(1-oxa-7-azaspiro[3.5]nonan-7-yl)acetamido)-2-methylpyridin-3-yl)-2-(1-methyl-1H-pyrazol-4-yl)pyrazolo[5,1-b]thiazole-7-carboxamide], the pIC50 was 8.55.

As for `Cc1ncc(NC(=O)CN2CCC2(C)C)cc1NC(=O)c1cnn2cc(-c3cnn(C)c3)sc12` [Example 82, N-(5-(2-(2,2-dimethylazetidin-1-yl)acetamido)-2-methylpyridin-3-yl)-2-(1-methyl-1H-pyrazol-4-yl)pyrazolo[5,1-b]thiazole-7-carboxamide], the pIC50 was 8.80.

For `COC1CCN(CC(=O)Nc2cnc(C)c(NC(=O)c3cnn4cc(-c5cnn(C)c5)sc34)c2)CC1` [Example 83, N-(5-(2-(4-methoxypiperidin-1-yl)acetamido)-2-methylpyridin-3-yl)-2-(1-methyl-1H-pyrazol-4-yl)pyrazolo[5,1-b]thiazole-7-carboxamide], the pIC50 is 8.64.

Consider `Cc1ncc(NC(=O)CN2CCC[C@@H]2C)cc1NC(=O)c1cnn2cc(-c3cnn(CCO)c3)sc12` [Example 84, (S)-2-(1-(2-hydroxyethyl)-1H-pyrazol-4-yl)-N-(2-methyl-5-(2-(2-methylpyrrolidin-1-yl)acetamido)pyridin-3-yl)pyrazolo[5,1-b]thiazole-7-carboxamide], for which the pIC50 was 9.05.

As to `Cc1ncc(NC(=O)CN2CCCCC23CC3)cc1NC(=O)c1cnn2cc(-c3cnn(CCO)c3)sc12` [Example 86, N-(5-(2-(4-azaspiro[2.5]octan-4-yl)acetamido)-2-methylpyridin-3-yl)-2-(1-(2-hydroxyethyl)-1H-pyrazol-4-yl)pyrazolo[5,1-b]thiazole-7-carboxamide], the pIC50 was 8.89.

As to `Cc1ncc(NC(=O)CN2CCCC23CC3)cc1NC(=O)c1cnn2cc(-c3cnn(CCO)c3)sc12` [Example 87, N-(5-(2-(4-azaspiro[2.4]heptan-4-yl)acetamido)-2-methylpyridin-3-yl)-2-(1-(2-hydroxyethyl)-1H-pyrazol-4-yl)pyrazolo[5,1-b]thiazole-7-carboxamide], the pIC50 is 9.40.

`Cc1ncc(NC(=O)CCN2CCCC2(C)C)cc1NC(=O)c1cnn2cc(-c3cnn(CCO)c3)sc12` [Example 88, N-(5-(3-(2,2-dimethylpyrrolidin-1-yl)propanamido)-2-methylpyridin-3-yl)-2-(1-(2-hydroxyethyl)-1H-pyrazol-4-yl)pyrazolo[5,1-b]thiazole-7-carboxamide]: the pIC50 was 9.40.

Consider `COCCn1cc(-c2cn3ncc(C(=O)Nc4cc(NC(=O)CCN5CCC(C)(C)C5)cnc4C)c3s2)cn1` [Example 89, N-(5-(3-(3,3-dimethylpyrrolidin-1-yl)propanamido)-2-methylpyridin-3-yl)-2-(1-(2-methoxyethyl)-1H-pyrazol-4-yl)pyrazolo[5,1-b]thiazole-7-carboxamide], for which the pIC50 was 9.22.

With `COCCn1cc(-c2cn3ncc(C(=O)Nc4cc(NC(=O)CCN5CCC6(CCC6)C5)cnc4C)c3s2)cn1` [Example 90, N-(5-(3-(6-azaspiro[3.4]octan-6-yl)propanamido)-2-methylpyridin-3-yl)-2-(1-(2-methoxyethyl)-1H-pyrazol-4-yl)pyrazolo[5,1-b]thiazole-7-carboxamide], the negative-log IC50 (pIC50) was 9.30.

For the compound `COCCn1cc(-c2cn3ncc(C(=O)Nc4cc(NC(=O)CCN5CCC6(CC6)C5)cnc4C)c3s2)cn1` [Example 91, N-(5-(3-(5-azaspiro[2.4]heptan-5-yl)propanamido)-2-methylpyridin-3-yl)-2-(1-(2-methoxyethyl)-1H-pyrazol-4-yl)pyrazolo[5,1-b]thiazole-7-carboxamide], the pIC50 was 9.30.

With `COCCn1cc(-c2cn3ncc(C(=O)Nc4cc(NC(=O)CCN5C[C@@H]6CC[C@H]5C6)cnc4C)c3s2)cn1` [Example 92, N-(5-(3-((1S,4R)-2-azabicyclo[2.2.1]heptan-2-yl)propanamido)-2-methylpyridin-3-yl)-2-(1-(2-methoxyethyl)-1H-pyrazol-4-yl)pyrazolo[5,1-b]thiazole-7-carboxamide], the negative-log IC50 (pIC50) was 9.30.

For `COCCn1cc(-c2cn3ncc(C(=O)Nc4cc(NC(=O)CCN5CC(C)(C)C5)cnc4C)c3s2)cn1` [Example 93, N-(5-(3-(3,3-dimethylazetidin-1-yl)propanamido)-2-methylpyridin-3-yl)-2-(1-(2-methoxyethyl)-1H-pyrazol-4-yl)pyrazolo[5,1-b]thiazole-7-carboxamide], the pIC50 is 9.05.

Regarding `COCCn1cc(-c2cn3ncc(C(=O)Nc4cc(NC(=O)CCN5C[C@H]6CC[C@@H]5C6)cnc4C)c3s2)cn1` [Example 94, N-(5-(3-((1R,4S)-2-azabicyclo[2.2.1]heptan-2-yl)propanamido)-2-methylpyridin-3-yl)-2-(1-(2-methoxyethyl)-1H-pyrazol-4-yl)pyrazolo[5,1-b]thiazole-7-carboxamide], the pIC50 was 9.30.

`Cc1ncc(C(=O)NCCN2CCCC2(C)C)cc1NC(=O)c1cnn2cc(-c3ccnc(N4CCOCC4)c3)sc12` [Example 483, N-(5-((2-(2,2-dimethylpyrrolidin-1-yl)ethyl)carbamoyl)-2-methylpyridin-3-yl)-2-(2-morpholinopyridin-4-yl)pyrazolo[5,1-b]thiazole-7-carboxamide]: the pIC50 is 9.52.

For the origin of these results see patent US20240109917A1 (ACTELION PHARMACEUTICALS LTD, priority 2020, published 2024).
